{"source": "patent US8835605B2", "about": "“Uses of cancer-targeting peptides in cancer diagnosis” (Academia Sinica, priority 2009, dated 2014)", "key": {"[1]": {"tested_on": "BT483 breast cancer xenografts", "test": "In vivo binding (homing) of test phages to breast cancer xenografts, phage recovery from tissues", "design": "species or system SCID mice", "settings": "heart, lung; for recovery rates of phage from tumor tissues compared with normal organs: 10^9 pfu i.v., tumor vs brain, FIG. 1", "method": "SCID mice were injected subcutaneously (s.c.) in the dorsolateral flank with 1×10^7 BT483 cells to induce breast cancer xenografts. The mice bearing xenograft tumors at a size of around 300 mm^3 were administered intravenously (i.v.) with one of the five test phages mentioned in Example 1 above (10^9 pfu) or a control phage. After perfusion, xenograft tumors and organs (i.e., brain, heart, and lung) were removed from each mouse and homogenized. The phages bound to each tissue sample were eluted, recovered using ER2738 bacterial cells as the host, and titered on IPTG/X-Gal agar plates, following the methods described in Lee et al., Cancer Res. 67:10958-10965 (2007) and Lo et al., Mol. Cancer. Ther 7:579-589 (2008)."}, "[2]": {"tested_on": "breast tumor xenografts (PC90 binding)", "test": "In vivo competition: peptide co-injected with PC90, immunostaining of tumor tissues", "design": "species or system mice", "settings": "100 μg peptide co-injected with PC90", "method": "SP90 was co-administered to test its ability of blocking PC90 from binding to the tumor tissues. Briefly, 100 μg SP90 or the control peptides described above were co-injected with PC90 to mice bearing breast tumor xenografts. The normal organs and tumor tissues were removed and fixed in Bouin's solution (Sigma, Mo., USA). After fixation, the samples were embedded in paraffin blocks, sliced to sections, and the sections were deparaffinized, rehydrated, and subjected to immunostaining using the mouse anti-M13 mAb described in Example 1 above."}, "[3]": {"tested_on": "cancer cells in the tissue samples (PC90 binding)", "test": "Peptide competition assay on cancer tissue samples", "design": "species or system human", "settings": "peptide 100 ng/ml with PC90 10^9 pfu", "method": "(§1) Fresh breast cancer tissue samples were obtained from twenty patients having mammary infiltrating ducal carcinoma. Each of the tissue samples was sliced to 4 μm and fixed in 1% paraformaldehyde. The sliced tissue samples were then incubated with PC90 or a control phage. After being washed by PBS containing […] (PBST0.1), the samples were incubated with an anti-M13 mouse mAb (Amersham Biosciences, Piscataway, N.J., USA) for 1 hour at room temperature, washed again with PBST0.1, and the immunoreactivity of each sample was determined using a biotin-free super sensitive polymer-HRP detection system (Biogenex, San Ramon, Calif., USA), following the procedures described in Lee et al. (2004) and Lo et al. The slides, to which the tissue samples were attached, were counterstained with hematoxylin, mounted with Aquatex (Merck, Dannstadt, Germany), and examined by light microscopy. The percentage of the positively stained cells was determined following a method described in Hall et al., J. Pathol. 172:1-4 (1994).\nThe cancer targeting activity of PC90 was confirmed by a peptide competition assay, in which the cancer tissue samples were incubated with (1) the synthetic peptide (100 ng/ml) SMDPFLFQLLQL (SEQ ID NO:5) (SP90) and PC90 (10^9 pfu) or (2) the control peptide (100 ng/ml) RLLDTNRPLLPY (SEQ ID NO:6; see Lee et al., Cancer Res. 64:8002-8008, 2004) and PC90. […]"}, "[4]": {"tested_on": "breast cancer tissue samples (mammary infiltrating ducal carcinoma)", "test": "Immunostaining of patient breast cancer biopsy samples with phage", "design": "species or system human", "settings": "biopsy samples from twenty patients; anti-M13 immunostaining", "method": "as §1"}}, "data": [{"sequence": "EATNSHGSRTMG (SEQ ID NO: 2) [PC65]", "values": [{"measurement": "recovery rates of phage from tumor tissues compared with normal organs", "setting": "[1]", "result": "much higher"}]}, {"sequence": "QLEFYTQLAHLI (SEQ ID NO: 4) [PC82]", "values": [{"measurement": "recovery rates of phage from tumor tissues compared with normal organs", "setting": "[1]", "result": "much higher"}]}, {"sequence": "QNIYAGVPMISF (SEQ ID NO: 1) [PC34]", "values": [{"measurement": "recovery rates of phage from tumor tissues compared with normal organs", "setting": "[1]", "result": "much higher"}]}, {"sequence": "RLLDTNRPLLPY (SEQ ID NO:6) [control peptide, synthetic control peptide, see Lee et al., Cancer Res. 64:8002-8008, 2004, reference compound]", "values": [{"measurement": "inhibition of PC90 binding to the tumor tissues (words)", "setting": "[2]", "result": "did not exhibit any inhibitory activity"}, {"measurement": "competition against PC90 for binding to cancer cells in tissue samples", "setting": "[3]", "result": "not"}]}, {"sequence": "SMDPFLFQLLQL (SEQ ID NO:5) [SP90, synthetic peptide …]", "values": [{"measurement": "inhibition of PC90 binding to the tumor tissues", "setting": "[2]", "result": 97, "unit": "%"}, {"measurement": "inhibition of PC90 binding to the tumor tissues (words)", "setting": "[2]", "result": "significantly inhibited"}, {"measurement": "competition against PC90 for binding to cancer cells in tissue samples", "setting": "[3]", "result": "competed against PC90 for binding to the cancer cells"}]}, {"sequence": "SMDPFLFQLLQL (SEQ ID NO: 5) [PC90]", "values": [{"measurement": "recovery rates of phage from tumor tissues compared with normal organs", "setting": "[1]", "result": "much higher"}, {"measurement": "targeting of tumor xenografts and normal organs", "setting": "[1]; i.v., tumor xenografts vs brain", "result": "bound to cancer cells in the tumor xenografts but not to normal organs"}, {"measurement": "patients determined as carrying breast cancer cells", "setting": "[4]", "result": "18 out of the 20"}]}, {"sequence": "TVSWSTTGRIPL (SEQ ID NO: 3) [PC73]", "values": [{"measurement": "recovery rates of phage from tumor tissues compared with normal organs", "setting": "[1]", "result": "much higher"}]}]}
